Test results taken from ChEMBL document CHEMBL3774345, “Synthesis of new diarylamides with pyrimidinyl pyridine scaffold and evaluation of their anti-proliferative effect on cancer cell lines” (Bioorg Med Chem Lett, 2016).

Tests used:
[1] = test system: M14; assay: Cytotoxicity against human M14 cells assessed as cell growth at 10^-5 M after 24 hrs by SRB assay; assay type: functional; settings: M14, 24 h, read-out: Activity
[2] = Cytotoxicity against human HCT15 cells assessed as cell growth at 10^-7 M after 24 hrs by SRB assay; assay type: functional; settings: HCT-15, 24 h, read-out: Activity
[3] = Cytotoxicity against human SF295 cells assessed as cell growth at 10^-7 M after 24 hrs by SRB assay; assay type: functional; settings: SF-295, 24 h, read-out: Activity
[4] = test system: SK-MEL-5; assay: Cytotoxicity against human SK-MEL-5 cells assessed as cell growth at 10^-6 M after 24 hrs by SRB assay; assay type: functional; settings: SK-MEL-5, 24 h, read-out: Activity
[5] = test system: NCI-H522; assay: Cytotoxicity against human NCI-H522 cells after 24 hrs by SRB assay; assay type: functional, cell-based; settings: NCI-H522, 24 h
[6] = test system: SR; assay: Cytotoxicity against human SR cells assessed as cell growth at 10^-7 M after 24 hrs by SRB assay; assay type: functional; settings: read-out: Activity
[7] = test system: SK-MEL-28; assay: Cytotoxicity against human SK-MEL-28 cells assessed as cell growth at 10^-7 M after 24 hrs by SRB assay; assay type: functional; settings: SK-MEL-28, 24 h, read-out: Activity
[8] = test system: SR; assay: Cytotoxicity against human SR cells assessed as cell growth at 10^-4 M after 24 hrs by SRB assay; assay type: functional; settings: read-out: Activity
[9] = Cytotoxicity against human BT549 cells after 24 hrs by SRB assay; assay type: functional; settings: BT-549, 24 h
[10] = test system: ACHN; assay: Cytotoxicity against human ACHN cells assessed as cell growth at 10^-6 M after 24 hrs by SRB assay; assay type: functional; settings: read-out: Activity
[11] = Cytotoxicity against human OVCAR8 cells after 24 hrs by SRB assay; assay type: functional; settings: OVCAR-8, 24 h
[12] = test system: HT-29; assay: Cytotoxicity against human HT-29 cells assessed as cell growth at 10^-4 M after 24 hrs by SRB assay; assay type: functional; settings: HT-29, 24 h, read-out: Activity
[13] = test system: U-251; assay: Cytotoxicity against human U251 cells assessed as cell growth at 10^-4 M after 24 hrs by SRB assay; assay type: functional; settings: U-251, 24 h, read-out: Activity
[14] = Cytotoxicity against human Hs 578T cells assessed as cell growth at 10^-8 M after 24 hrs by SRB assay; assay type: functional; settings: read-out: Activity
[15] = test system: NCI-H23; assay: Cytotoxicity against human NCI-H23 cells assessed as cell growth at 10^-7 M after 24 hrs by SRB assay; assay type: functional; settings: NCI-H23, 24 h, read-out: Activity
[16] = test system: KM12; assay: Cytotoxicity against human KM12 cells assessed as cell growth at 10^-5 M after 24 hrs by SRB assay; assay type: functional; settings: KM12, 24 h, read-out: Activity
[17] = test system: SK-MEL-2; assay: Cytotoxicity against human SK-MEL-2 cells assessed as cell growth at 10^-6 M after 24 hrs by SRB assay; assay type: functional; settings: SK-MEL-2, 24 h, read-out: Activity
[18] = Cytotoxicity against human IGROV1 cells assessed as cell growth at 10^-5 M after 24 hrs by SRB assay; assay type: functional; settings: IGROV-1, 24 h, read-out: Activity
[19] = Cytotoxicity against human HL-60(TB) cells after 24 hrs by SRB assay; assay type: functional; settings: HL-60, 24 h
[20] = test system: KM12; assay: Cytotoxicity against human KM12 cells after 24 hrs by SRB assay; assay type: functional; settings: KM12, 24 h
[21] = test system: SK-MEL-2; assay: Cytotoxicity against human SK-MEL-2 cells assessed as cell growth at 10^-8 M after 24 hrs by SRB assay; assay type: functional; settings: SK-MEL-2, 24 h, read-out: Activity
[22] = Cytotoxicity against human IGROV1 cells after 24 hrs by SRB assay; assay type: functional; settings: IGROV-1, 24 h
[23] = Cytotoxicity against human TK10 cells after 24 hrs by SRB assay; assay type: functional; settings: TK-10, 24 h
[24] = Cytotoxicity against human HOP62 cells assessed as cell growth at 10^-7 M after 24 hrs by SRB assay; assay type: functional; settings: HOP-62, 24 h, read-out: Activity
[25] = Cytotoxicity against human NCI-ADR-RES cells assessed as cell growth at 10^-8 M after 24 hrs by SRB assay; assay type: functional; settings: read-out: Activity
[26] = Cytotoxicity against human Caki1 cells assessed as cell growth at 10^-4 M after 24 hrs by SRB assay; assay type: functional; settings: CAKI-1, 24 h, read-out: Activity
[27] = Cytotoxicity against human COLO205 cells assessed as cell growth at 10^-8 M after 24 hrs by SRB assay; assay type: functional; settings: COLO 205, 24 h, read-out: Activity
[28] = Cytotoxicity against human UACC62 cells assessed as cell growth at 10^-6 M after 24 hrs by SRB assay; assay type: functional; settings: UACC-62, 24 h, read-out: Activity
[29] = test system: KM12; assay: Cytotoxicity against human KM12 cells assessed as cell growth at 10^-4 M after 24 hrs by SRB assay; assay type: functional; settings: KM12, 24 h, read-out: Activity
[30] = test system: ACHN; assay: Cytotoxicity against human ACHN cells assessed as cell growth at 10^-8 M after 24 hrs by SRB assay; assay type: functional; settings: read-out: Activity
[31] = test system: SK-MEL-2; assay: Cytotoxicity against human SK-MEL-2 cells assessed as growth inhibition at 10 uM after 24 hrs by SRB assay; assay type: functional; settings: SK-MEL-2, 24 h, read-out: GI
[32] = test system: SR; assay: Cytotoxicity against human SR cells assessed as growth inhibition at 10 uM after 24 hrs by SRB assay; assay type: functional; settings: read-out: GI
[33] = read-out: LC50 (the source's name)
[34] = read-out: pLC50 (the source's name) (converted)

SMILES: O=C(Nc1cc(-c2cccnc2)nc(NCCCN2CCOCC2)n1)c1cc(Br)cc(C(F)(F)F)c1
- growth at 10 µM [1]: -80%
- growth at 0.1 µM [2]: 92%
- growth at 0.1 µM [3]: 91%
- growth at 1 µM [4]: 91%
- IC50 [5]: 1.95 µM
- GI50 ([5]; read-out: GI50): 1.95 µM
- CC50 [5, 33]: 23.3 µM
- TGI ([5]; read-out: TGI): 5.31 µM
- GI50 ([5]; read-out: pGI50 (converted)): 1.95 µM
- CC50 [5, 34]: 23.4 µM
- TGI ([5]; read-out: pTGI (converted)): 5.37 µM
- growth at 0.1 µM [6]: 106%
- growth at 0.1 µM [7]: 91%
- growth at 100 µM [8]: -1%
- GI50 ([9]; read-out: GI50): 3.27 µM
- CC50 [9, 33]: 45 µM
- TGI ([9]; read-out: TGI): 15 µM
- GI50 ([9]; read-out: pGI50 (converted)): 3.24 µM
- CC50 [9, 34]: 44.7 µM
- TGI ([9]; read-out: pTGI (converted)): 15.1 µM
- growth at 1 µM [10]: 92%
- GI50 ([11]; read-out: GI50): 2.98 µM
- CC50 [11, 33]: 39.4 µM
- TGI ([11]; read-out: TGI): 8.59 µM
- GI50 ([11]; read-out: pGI50 (converted)): 2.95 µM
- CC50 [11, 34]: 39.8 µM
- TGI ([11]; read-out: pTGI (converted)): 8.51 µM
- growth at 100 µM [12]: -83%
- growth at 100 µM [13]: -93%
- growth at 0.01 µM [14]: 93%
- growth at 0.1 µM [15]: 98%
- growth at 10 µM [16]: 14%
- growth at 1 µM [17]: 94%
- growth at 10 µM [18]: 29%
- GI50 ([19]; read-out: GI50): 2.15 µM
- CC50 [19, 33]: 90.1 µM
- TGI ([19]; read-out: TGI): 5.86 µM
- GI50 ([19]; read-out: pGI50 (converted)): 2.14 µM
- CC50 [19, 34]: 89.1 µM
- TGI ([19]; read-out: pTGI (converted)): 5.89 µM
- GI50 ([20]; read-out: GI50): 3.62 µM
- CC50 [20, 33]: 41 µM
- TGI ([20]; read-out: TGI): 13.6 µM
- GI50 ([20]; read-out: pGI50 (converted)): 3.63 µM
- CC50 [20, 34]: 40.7 µM
- TGI ([20]; read-out: pTGI (converted)): 13.5 µM
- growth at 0.01 µM [21]: 109%
- GI50 ([22]; read-out: GI50): 4.67 µM
- CC50 [22, 33]: 60.5 µM
- TGI ([22]; read-out: TGI): 19.5 µM
- GI50 ([22]; read-out: pGI50 (converted)): 4.68 µM
- CC50 [22, 34]: 60.3 µM
- TGI ([22]; read-out: pTGI (converted)): 19.5 µM
- GI50 ([23]; read-out: GI50): 5.07 µM
- CC50 [23, 33]: 43.3 µM
- TGI ([23]; read-out: TGI): 18.1 µM
- GI50 ([23]; read-out: pGI50 (converted)): 5.13 µM
- CC50 [23, 34]: 43.7 µM
- TGI ([23]; read-out: pTGI (converted)): 18.2 µM
- growth at 0.1 µM [24]: 85%
- growth at 0.01 µM [25]: 100%
- growth at 100 µM [26]: -100%
- growth at 0.01 µM [27]: 104%
- growth at 1 µM [28]: 90%
- growth at 100 µM [29]: -90%
- growth at 0.01 µM [30]: 95%

SMILES: COCCCNc1nc(NC(=O)c2cc(OC)cc(OC)c2)cc(-c2cccnc2)n1
- inhibition of growth at 10 µM [31]: 21.2%

SMILES: COc1cc(OC)cc(C(=O)Nc2cc(-c3cccnc3)nc(NCCCN3CCOCC3)n2)c1
- inhibition of growth at 10 µM [32]: 42.1%
